# Assay results taken from article PMC6271179 (Molecules, 2014).
# Assays:
# [1] = In vivo pharmacokinetics after oral (intragastric) administration to rats; conditions: rat
# Experimental: Derivative 2 was administered to overnight-fasted male Wistar rats from the facility of the Department of Biomedical Sciences as a single intragastric dose (88 µmol/kg, dissolved in 250 µL water). Blood samples were obtained by the tail bleeding technique: before drug administration, rats were anesthetised with isoflurane and the tip of the tail was cut off; blood samples (80–100 µL each) were then taken from the tail tip at different time points after drug administration. Blood was collected in heparinised tubes, kept in ice and treated as described in [90] within 10 min.
# For quantification purposes we assumed the same absorption coefficient.
# [2] = tested on: explanted rat jejunum segments; assay: Permeation across explanted rat jejunum segments in Ussing-type chambers (ex vivo)
# Experimental: We assayed transport of the derivatives across explanted rat jejunum segments using Ussing-type chambers.
# Intestine was excised from 18 h fasted rats and transferred into a saline solution (154 mM NaCl in water) at 37 °C. The jejunum was cut into 1 cm long strips, opened longitudinally, rinsed free of luminal content and mounted in Ussing-type chambers. Apical and basolateral compartments were filled with 1 mL each of oxygenated HEPES buffer (248 mM NaCl, 55.3 mM glucose, 50 mM NaHCO3, 9.9 mM KCl, 1.9 mM MgSO4, 40 mM HEPES, pH 6.8), and incubated in a water bath at 37 °C until all chambers were assembled (approximately 20 min). The buffer was then removed and substituted with 1 mL of a 20 µM solution (in the same buffer) of the compound to be tested on the apical side (dilution from a 20 mM stock solution), and with 1 mL of fresh HEPES buffer on the basolateral one. […] During the experiment, oxygen was continuously bubbled in each basolateral compartment. […]
# Samples (2 µL) were analyzed by HPLC/UV (1290 Infinity LC System, Agilent Technologies) using a reverse phase column (Zorbax RRHD Eclipse Plus C18, 1.8 µm, 50 x 2.1 mm i.d.; Agilent Technologies) and a UV diode array detector (190-500 nm). […]
structure (smiles),measurement,setting,value
"CN(CCCCOC1C(O)C(O)OC(CO)C1O)C(=O)Oc1ccc(C=Cc2cc(OC(=O)N(C)CCCCOC3C(O)C(O)OC(CO)C3O)cc(OC(=O)N(C)CCCCOC3C(O)C(O)OC(CO)C3O)c2)cc1 [derivative 2, 3,4',5-Tri-[α/β-D-glucopyranose-3-(4-N-methyl-N-butoxy)]-resveratrol carbamate]",Tmax,"[1]; male, Wistar, whole blood, po, 88 umol/kg, single intragastric dose 88 µmol/kg, blood, read-out: time of maximum blood levels (converted)",~1 h
same,concentration of the derivative in the bloodstream,"[1]; gavage 88 µmol/kg, during the 4 hours following administration",low concentrations
same,resveratrol and its common metabolites in blood after oral administration (hydrolysis of carbamate groups),"[1]; oral, also basolateral chamber ex vivo",Neither resveratrol nor its common metabolites were present in detectable amounts
same,species detected in the basolateral chamber,"[2]; 20 µM apical, 2.5 h",only the intact derivative was detected
same,"extent of translocation with SGLT-1/GLUT-2 inhibitors (phlorizin, phloretin, cytochalasin B), low glucose, non-fasted or glucose-fed rats",[2]; comparison among conditions,not to differ significantly
